Measured values taken from patent US20250074946A1, “USE OF SE-DR AFFINITY PEPTIDE IN PREPARING DRUG FOR TREATING RHEUMATIC DISEASE” (HEBEI FITNESS BIOTECHNOLOGY CO., LTD., priority 2021, published 2025).
Where no end group is shown, it is not given here.

Experiments:
[1] = test system: HLA-DR1; test: Determination of polypeptide affinity (fluorescence polarization competition); type: binding, human; settings: competition with 25 nM fluorescently-labeled polypeptide, 500 nM HLA-DR1, pH 7.4, 37° C. 30 min, fluorescence polarization, curve fitting
Experimental: (§1) The reaction system was at pH 7.4. Before use, protease inhibitor cocktail was added, and incubated at 37° C. for 30 min. The fluorescence polarization values were read. The mean value of the free labeled polypeptides was set as FP_free, and the value of the well without the competitive peptide was set as FP_no_comp. The relative binding rate of other wells was calculated according to the formula=(FP_sample−FP_free)/(FP_no_comp−FP_free). A curve was plotted using the relative binding rate and the concentration of the test polypeptide, and the IC50 value was calculated by curve fitting.

[2] = test system: PBMC; test: PBMC stimulation test, IL-6 in supernatant by ELISA; type: cell-based, human; settings: PBMC 1×10^6 cell/ml, peptide 10 μg/ml, 5 days of culture
Source text: The SE-DR molecule is directly related to the pathogenesis of RA. It can present RA-related autoantigens in vivo, such as type II collagen (CII), heat shock protein 60 (Hsp60), cartilage glycoprotein (HCgp-39) and so on, and further activate autoreactive T cells, leading to the occurrence of rheumatoid arthritis. An important strategy for the treatment of RA is to use competitive inhibition to block the activation of autoreactive T cells by autoantigen peptides. […] Based on the above principles, we have designed and synthesized a series of altered peptide ligands, and screened for their affinity to SE-DR and for the activation ability on the peripheral blood T cells in RA patients. The specific steps and results are shown in Example 1 and Example 2.
3 mL ficoll was added to a 15 mL centrifuge tube, and 4 mL blood sample was then applied on the surface of ficoll. The tube was centrifuged at 400 g at 18-20° C. for 30-40 min. The upper layer of plasma was aspirated with a Pasteur pipette, and the PBMC layer (approximately 2 mL) was aspirated, and added to a 14 mL centrifuge tube previously filled with at least 3 volumes (6 mL) of PBS. The mixture was gently resuspended. The tube was centrifuged at 60-100 g for 10 min at 18-20° C. After centrifugation, the supernatant was removed with a Pasteur pipette, and the resulting cell mass was resuspended in 6-8 mL PBS and centrifuged at 18-20° C. for 10 min at 60-100 g to remove the supernatant. The cells were resuspended in an appropriate amount of 1640 complete medium and diluted to 1×10^6 cell/ml after cell counting. The diluted cell suspension was added to a 96-well plate. The positive control, allosteric peptide, was added to 100 μl cell culture to a final concentration of 10 μg/ml. The mixture was replenished to 200 μL with 1640 complete medium. After 5 days of culture, the supernatant was aspirated, centrifuged at 3000 rpm for 5 minutes, and the level of IL-6 in the supernatant was detected by ELISA.

[3] = test system: CIA rats; test: CIA rat model: inflammation score AUC and peripheral blood T-cell subtypes (Example 3); type: in vivo; settings: 0.2 mmol
Experimental: Collagen-induced arthritis (CIA) model was established by intradermal injection of the emulsion formulated using type II bovine collagen (CII) together with incomplete Freund's adjuvant (IFA) into the tail head of a female Lewis rat. After the model establishment, the morphological changes of rats' four paws were examined every day. […] Except for the model group, the dosage of polypeptide was all set as 0.2 mmol. A control group was also set up, in which the drug was injected into the tail vein once every other day for […]. The area under the curve (AUC) of the inflammation score was used for the efficacy analysis from the day the rats were enrolled, once every other day, until the end of administration.

[4] = test system: immune system of healthy rats; test: Immune indicators of SD rats after one month of administration (Example 4); type: in vivo, rat; settings: once a day for 4 weeks, end of administration
Experimental: SD rats were used to investigate the effects of the SE-DR affinity peptides on the immune indicators of the rats after continuous administration for one month. […] At the end of administration, analysis was conducted on the serum anti-FNS007 antibodies, different types of serum immunoglobulins, the serum complement, the peripheral blood T lymphocyte and the serum cytokines.

[5] = test system: immune system of healthy monkeys; test: Immune indicators of cynomolgus monkeys after one month of administration (Example 5); type: in vivo, cynomolgus monkey; settings: once a day for 4 weeks, end of administration
Source text: Cynomolgus monkeys were used to investigate the effects of the SE-DR affinity peptide on the immune indicators of cynomolgus monkeys after continuous administration for one month. […] At the end of administration, the immune indicators, including the serum anti-FNS007 antibodies, the immunoglobulins of different serotypes, the serum complement, the peripheral blood T lymphocyte and the serum cytokines, were observed.

[6] = test system: CIA mice infected with chronic hepatitis B; test: CIA mice infected with chronic hepatitis B (Example 8); type: in vivo, mouse
Experimental: Establishment of chronic hepatitis B model in mice: DBA/1 mice were injected with Raav8-1. 3 HBV (1×10^12 vg/mL) via tail vein to establish HBV chronic hepatitis B model.
DBA/1 mice infected with chronic hepatitis B were used to establish CIA model with chronic hepatitis B infection. Methods: Two days after the mice were injected with Raav8-1.3 HBV (1×10^12 vg/mL) via tail vein, the emulsion of bovine C II and CFA (containing 100 μg collagen) was intradermally injected into the tail head of the mice for immunization. After 21 days, the mice were boosted once by intraperitoneal injection of the emulsion (containing 100 μg collagen) prepared by bovine C II and IFA. Thereafter, the morphological changes of the four paws of the mice were examined every day, and the mice were randomly assigned to the treatment group at inflammation score of 1. […] Another 10 mice with latent hepatitis B infection were not subjected to model establishment and set as the control group. PBS was administrated to both the model group and the control group. The mice in each group were given the corresponding drugs by tail intravenous injection at the volume of 10 ml/kg, once every other day, for 27 consecutive days. The mice were sacrificed on day 28 after administration. The inflammation scores of the four paws of the mice in each group were evaluated during the administration. The serological indicators for virus injection and liver function of the mice were detected on the day of booster immunization (22 days after tail vein injection) and at the time of sacrifice.

[7] = test system: CIA rats; test: APL20 in combination with methotrexate in CIA rats (Example 11); type: in vivo, rat; settings: for inflammation score during drug discontinuation compared with that at the time of drug discontinuation: 21 days of observation after stopping at day 21; for Pathological score during 21 days of drug discontinuation: HE staining of ankle joint, score 0-4; for AUC, during drug discontinuation (day 22-42): inflammation score AUC after stopping administration at day 21
Source text: Female Lewis rats were used to establish CIA model. Methods: the rats were immunized by intradermal injecting the emulsion prepared by bovine C II and IFA at the tail head. After 7 days, the rats were boosted once with the same method. Thereafter, the morphological changes of the four paws of the rats were examined every day, and the rats were randomly assigned to the treatment group at the inflammation score of 1. […] Another 8 female Lewis rats were not subjected to model establishment and set as the control group. PBS was administrated to both the model group and the control group. Corresponding drugs were administrated to the rats in each group by tail vein injection at the volume of 5 mL/kg, in which methotrexate was administrated twice a week, and other drugs were administrated once every other day, for 21 consecutive days, followed by a recovery period of 21 days. The inflammation scores of the four paws of the rats in each group were evaluated during the administration (once every other day), and the area under the curve (AUC) of the inflammation score was calculated during the administration. During drug discontinuation, the inflammation scores of the four paws of the rats in each group were continuously evaluated (once every other day), and the rats were sacrificed on day 22 after drug discontinuation. HE staining was performed on the ankle joint for tissue injury evaluation. The specific scoring criteria were as follows: 0=normal synovial tissue; 1=synovial hyperplasia and inflammatory cell infiltration; 2-pannus formation and cartilage erosion; 3=destruction of most of the cartilage with subchondral bone erosion; 4=loss of joint integrity, ankylosis.

[8] = test system: CIA rats with latent tuberculosis infection
[9] = test system: CIA rats; test: APL20 in combination with methotrexate in CIA rats (Example 11); type: in vivo, rat
[10] = test system: rats; settings: cited from earlier work
[11] = target: HLA-DR1 (Homo sapiens, UniProt P01903+P01911, A100R/D57E/F55L/F60I/F76Y/I96L/L162R/M171V/P40L/Q125E/R42F/V115G/Y59C); test: Determination of polypeptide affinity (fluorescence polarization competition); type: binding
Experimental: as §1

[12] = peripheral blood, […] after end of administration, flow cytometry
[13] = inflammation score AUC, APL20 0.2 mmol once every other day, methotrexate 0.5 mg/kg twice a week, i.v.

Compound: RSFTAASSETGVG [APL14]
- IC50 [1]: 6.54 µM

Compound: SIDLKDKKYKNIGAKLVQLVANNTNEEA [APL20]
- IL-6 levels in the supernatant [2]: 2.7 ng/mL
- Inflammation score and area under the time curve (AUC) ([3]; female Lewis CIA rats, tail vein once every other day for 15 days): 55.31 ± 40.23
- Th1 (%) [3, 12]: 0.18 ± 0.07 %
- Th2 (%) [3, 12]: 4.35 ± 0.62 %
- Th17 (%) [3, 12]: 0.88 ± 0.07 %
- Treg (%) [3, 12]: 5.46 ± 0.81 %
- CD3% [4]: 36.96 ± 9.81%
- CD4% [4]: 18.96 ± 5.98%
- CD8% [4]: 17.99 ± 8.23%
- IFN-γ [4]: 2.58 ± 0.29 pg/mL
- IL-2 [4]: 3.55 ± 2.75 pg/mL
- IL-4 [4]: 2.03 ± 1.01 pg/mL
- TNF-α [4]: 5.09 ± 1.88 pg/mL
- CD3% [5]: 62.96 ± 9.77%
- CD4% [5]: 27.82 ± 8.05%
- CD8% [5]: 22.97 ± 7.09%
- IFN-γ [5]: 5.18 ± 0.33 pg/mL
- IL-2 [5]: 4.55 ± 0.71 pg/mL
- IL-4 [5]: 2.16 ± 0.36 pg/mL
- TNF-α [5]: 2.45 ± 0.38 pg/mL
- ALT level ([6]; at sacrifice, day 28): 46.28 ± 17.99 U/L
- Hepatitis B activation rate (Ratio of ALT > 100 U/L) ([6]; at sacrifice, day 28): 0%
- Observation on the daily condition of mice ([6]; during administration): No abnormality
- Inflammation score and area under the time curve (AUC) ([6]; peptides 50 μmol, Abatacept 100 μg, tail i.v. once every other day for 27 days): 92.34 ± 53.29
- inflammation score during drug discontinuation compared with that at the time of drug discontinuation [7]: could maintain the therapeutic effect
- Pathological score during 21 days of drug discontinuation [7]: 2.05 ± 0.34
- AUC, during drug discontinuation (day 22-42) [7]: 50.11 ± 41.27
- Observation on the daily condition of rats ([8]; during administration): No abnormality
- Tuberculosis recurrence rate ([8]; peptides 0.2 mmol, adalimumab 1 mg/kg, 21 days): 0%
- Inflammation score and area under the time curve (AUC) ([8]; peptides 0.2 mmol, adalimumab 1 mg/kg, tail i.v. once every other day for 21 days): 49.62 ± 35.87
- Culture of MTB from lungs and spleens of rats at sacrifice ([8]; sacrifice on day 22, peptides 0.2 mmol, adalimumab 1 mg/kg): Negative
- Incidence of infection in mice [9]: 0%

Compound: CN(Cc1cnc2nc(N)nc(N)c2n1)c1ccc(C(=O)N[C@@H](CCC(=O)O)C(=O)O)cc1 [Methotrexate, methotrexate]
- inflammation score during drug discontinuation compared with that at the time of drug discontinuation [7]: significantly increased
- Pathological score during 21 days of drug discontinuation [7]: 2.87 ± 0.79
- AUC, during drug discontinuation (day 22-42) [7]: 100.13 ± 50.66
- AUC, during administration (day 1-21) [7, 13]: 67.69 ± 22.72
- AUC, the first week during administration [7, 13]: 16.58 ± 5.23
- AUC, during administration (day 1-21) ([7]; inflammation score AUC, APL20 0.2 mmol once every other day, methotrexate 0.5 mg/kg twice a week, i.v., listed as methotrexate): 67.69
- Incidence of infection in mice [9]: 20%
- half lethal dose [10]: 43 mg/kg

Compound: AVKHNALKWA [APL52]
- IC50 [1]: > 100 µM

Compound: PGYVKQGTLGLAT [APL3]
- IC50 [11]: 3.35 µM
